Data on two compounds can be found in article PMC7023064, “Design, Synthesis, and Evaluation of Novel 2-Methoxyestradiol Derivatives as Apoptotic Inducers through an Intrinsic Apoptosis Pathway” (Biomolecules, 2020).

The test system of experiment [1] is human breast cancer MDA-MB-231 cell lines. The experiment in a line: MTT cytotoxicity assay, MDA-MB-231. Format: cell-based. The settings on record: mean ± SD of three experiments. On the procedure: Human breast adenocarcinoma MCF-7 cell lines, human breast cancer MDA-MB-231 cell lines, and the normal human liver L-O2 cell lines were provided by Nanjing KeyGen Biotech Co. Ltd. (Nanjing, China). MCF-7 cells were cultured in a base medium (90% RPMI-1640 and 10% FBS) at 37 °C, 5% CO2 and a saturated humidity atmosphere. MDA-MB-231 cells were cultured in a base medium (90% […] and 10% FBS) at 37 °C, 5% CO2 and a saturated humidity atmosphere. L-O2 cells were cultured in a base medium (90% DMEM and 10% FBS) at 37 °C, 5% CO2 and a saturated humidity atmosphere.
The cytotoxicity of the tested compounds was determined using the 3-(4,5-dimethyl-2-thiazolyl)-2,5-diphenyl-2-H-tetrazolium bromide (MTT) assay. Cells were seeded in 96-well plates and incubated in a 5% CO2 incubator at 37 °C. When the cells adhered, compounds at different concentrations were added to every well. After incubation for another 72 h, MTT solution (5 mg/mL) was added into each well and cells were incubated for an additional 4 h. The viable cells were stained with MTT and scanned with an electrophotometer at 570 nm. Each concentration treatment was done in triplicate wells. The half maximal inhibitory concentration (IC50) values were estimated by fitting the inhibition data to a dose-dependent curve using a logistic derivative equation.
For orientation: Formazan colour is commonly taken as a measure of viable cells.

A further experiment relates to MCF-7 cells. The experiment can be described thus: Cell apoptosis analysis (Annexin V-APC/7-AAD double staining). Format: cell-based, human. The settings on record: 72 h. On the procedure:
MCF-7 cells at a density of 2 × 10^5 cells/well were seeded on each well of 6-well plates and allowed to grow overnight. Then the cells were treated with compound 11/12a (5, 10, and 20 μM) for 72 h, while cells without treatment were used as control group. The treated cells were trypsinized and washed with cold PBS twice, then centrifuged at 2000 rpm for 5 min and resuspended in 500 μL annexin V binding buffer. 5 μL of Annexin V- allophycocyanin (APC) was added, and the mixture was incubated in the dark at 25 °C for 15 min. Then, 5 μL of 7-AAD was added just prior to acquisition. Apoptosis was analyzed by Annexin V-APC and 7-AAD double staining by flow cytometry (FACS Calibur Becton-Dickinson, San Jose, Califormia, USA).

In experiment [2] the target is T1, estradiol receptor alpha (ERα) (Homo sapiens, UniProt P03372).
T1 construct: endogenous in cells; host or cells: MCF-7
T1 sequence (P03372 1-595): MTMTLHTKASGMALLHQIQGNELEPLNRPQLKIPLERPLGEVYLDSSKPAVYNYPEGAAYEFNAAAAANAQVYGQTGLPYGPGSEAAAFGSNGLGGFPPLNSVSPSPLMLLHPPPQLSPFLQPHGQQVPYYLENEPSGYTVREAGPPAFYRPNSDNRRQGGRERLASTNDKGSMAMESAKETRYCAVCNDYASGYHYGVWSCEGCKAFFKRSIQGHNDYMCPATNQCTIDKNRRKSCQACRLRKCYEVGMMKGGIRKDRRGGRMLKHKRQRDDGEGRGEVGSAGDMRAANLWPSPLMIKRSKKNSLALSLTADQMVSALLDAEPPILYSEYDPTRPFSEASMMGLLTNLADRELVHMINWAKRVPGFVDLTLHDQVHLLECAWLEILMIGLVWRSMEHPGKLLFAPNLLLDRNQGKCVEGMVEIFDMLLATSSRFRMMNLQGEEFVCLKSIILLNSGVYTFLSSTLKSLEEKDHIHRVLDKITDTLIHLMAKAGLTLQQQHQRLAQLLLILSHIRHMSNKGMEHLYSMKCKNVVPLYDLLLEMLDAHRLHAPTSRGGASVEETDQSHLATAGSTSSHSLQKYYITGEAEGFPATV
The experiment in a line: Immunohistochemical (IHC) analysis of ERα. Format: cell-based. The settings on record: 5, 10, and 20 μM, MCF-7 cells, dose-dependent. The protocol:
MCF-7 cells were seeded in culture plates and treated with compound 11/12a (0, 5, 10, and 20 μM) for 72 h. Cells were collected and mounted on a slide, fixed for 30 min with 4% paraformaldehyde, and washed three times with PBS. 1% Triton X-100 was added to each cell sample, and it was permeabilized at room temperature for 10 min, then washed three times with PBS. Two drops of 3% H2O2-methanol solution were added to each cell section. After being blocked at room temperature for 10 min, the section was washed three times with PBS. Then, 50–100 μL of ready-to-use goat serum was added and cells were incubated for 20 min at room temperature. Before the cell section was incubated at 37 °C for 2 h in a wet box, 50–100 μL of a primary antibody (1:200 dilution) against estradiol receptor alpha (ERα) (Bs-1427R, Bioss Co. Ltd., Beijing, China) was added, and then washed three times with PBS. Subsequently, 50 μL of enhancer was added and cells were incubated for 30 min at room temperature, then washed three times with PBS. Fifty microliters of a universal IgG antibody-Fab fragment-HRP multimer was added dropwise, and the mixture was incubated at 37 °C for 30 min, then soaked and washed three times with PBS. After 2 drops of freshly prepared DAB (DAB-1031, MaXi Biotech Co. Ltd., FuZhou, China) solution were added to each cell section, the dyeing depth was observed under the microscope. […]

As a reminder, the IC50 is the concentration at which inhibition is half-maximal. A high value points to lower potency. As to “17 β-[6-(Uracil-3-yl)-Hexyloxy]-2-Methoxy-Estra-1,3,5(10)-Triene-3-ol [Compound 12a]”, in experiment [1] (72 h), 13 ± 0.38 µM corresponded to half-maximal inhibition (IC50). For the same compound, the “total early and late apoptotic cells” value with MCF-7 cells (5 μM) was 12.1%; with MCF-7 cells (10 μM), 30.86%; in the experiment on MCF-7 cells (20 μM), 67.28%. Further, the “interaction with ERα (nuclear colour, IOD value)” value in experiment [2] is “specific binding”.

`COc1cc2c(cc1O)CC[C@@H]1[C@@H]2CC[C@]2(C)[C@@H](OCCCCCCCCn3c(=O)ccn([C@@H]4O[C@H](CO)[C@@H](O)[C@H]4O)c3=O)CC[C@@H]12` [Compound 11, 17 β-[8-(1-β-D-Ribofuranosyluracil-3-yl)-Octyloxy]-2-Methoxy-Estra-1,3,5(10)-Triene-3-ol] came in with an IC50 in experiment [1] (Homo sapiens, MDA-MB-231, 72 h) of 14 ± 1.08 µM. The “total early and late apoptotic cells” value is 13.21% in the experiment with MCF-7 cells (5 μM), 33.24% in the experiment with MCF-7 cells (10 μM) and 67.74% with MCF-7 cells (20 μM). Moreover, the “interaction with ERα (nuclear colour, IOD value)” value in experiment [2] is “specific binding”.
